Data as given in PubChem BioAssay AID1745844 (Carcinogenic Potency Database (CPDB), 2022).
Calls of active or inactive are those of the source. No rule for the calls is given here.

Tested on: rodent lifetime carcinogenesis bioassay, tumor incidence TD50
Assay: carcinogenic potency in animals, long-term in vivo studies, CPDB compilation (AID 1745844)

In the case of `CN(CCCC(=O)c1cccnc1)N=O`, the TD50 (hamster, strain Syrian Golden, females, in drinking water, site: liver, lesion: hepatocellular carcinoma, dosed 87 weeks, study length 87 weeks) was 5.13 mg/kg/day (inactive), the carcinogen call (hamster, strain Syrian Golden, females, in drinking water, site: lung, lesion: several types, types named in the paper, dosed 87 weeks, study length 87 weeks) was “negative (inactive)” and the carcinogen call (hamster, strain Syrian Golden, females, in drinking water, site: pancreas, lesion: adenocarcinoma, dosed 87 weeks, study length 87 weeks) was “negative (inactive)”. For the same compound, the carcinogen call (hamster, strain Syrian Golden, females, in drinking water, site: pancreatic islets, lesion: islet-cell adenoma, dosed 87 weeks, study length 87 weeks) was “negative (inactive)”, the TD50 (rat, strain Fischer 344, males, in drinking water, site: all sites, lesion: several types, types named in the paper, dosed 118 weeks, study length 128 weeks) was 0.14 mg/kg/day and the TD50 (rat, strain Fischer 344, males, in drinking water, site: liver, lesion: adenoma, dosed 118 weeks, study length 128 weeks) was 0.871 mg/kg/day. It also gave a TD50 (rat, strain Fischer 344, males, in drinking water, site: liver, lesion: hepatoma, dosed 118 weeks, study length 128 weeks) of 2.74 mg/kg/day, a TD50 (rat, strain Fischer 344, males, in drinking water, site: liver, lesion: several types, types named in the paper, dosed 111 weeks, study length 111 weeks) of 2.97 mg/kg/day and a TD50 (rat, strain Fischer 344, males, in drinking water, site: liver, lesion: several types, types named in the paper, dosed 118 weeks, study length 128 weeks) of 0.651 mg/kg/day. The TD50 (rat, strain Fischer 344, males, in drinking water, site: lung, lesion: adenocarcinoma, dosed 111 weeks, study length 111 weeks) was 0.148 mg/kg/day, the TD50 (rat, strain Fischer 344, males, in drinking water, site: lung, lesion: adenocarcinoma, dosed 118 weeks, study length 128 weeks) was 0.672 mg/kg/day and the TD50 (rat, strain Fischer 344, males, in drinking water, site: lung, lesion: adenoma, dosed 111 weeks, study length 111 weeks) was 0.279 mg/kg/day. For the same compound, the TD50 (rat, strain Fischer 344, males, in drinking water, site: lung, lesion: adenoma, dosed 118 weeks, study length 128 weeks) was 0.343 mg/kg/day, the TD50 (rat, strain Fischer 344, males, in drinking water, site: lung, lesion: adenosquamous carcinoma, dosed 118 weeks, study length 128 weeks) was 1.46 mg/kg/day and the TD50 (rat, strain Fischer 344, males, in drinking water, site: lung, lesion: several types, types named in the paper, dosed 111 weeks, study length 111 weeks) was 0.0688 mg/kg/day. It also gave a TD50 (rat, strain Fischer 344, males, in drinking water, site: lung, lesion: several types, types named in the paper, dosed 118 weeks, study length 128 weeks) of 0.182 mg/kg/day, a TD50 (rat, strain Fischer 344, males, in drinking water, site: lung, lesion: squamous-cell carcinoma, dosed 118 weeks, study length 128 weeks) of 3.4 mg/kg/day and a TD50 (rat, strain Fischer 344, males, in drinking water, site: nasal cavity, lesion: several types, types named in the paper, dosed 118 weeks, study length 128 weeks) of 1.66 mg/kg/day. The TD50 (rat, strain Fischer 344, males, in drinking water, site: pancreas, exocrine, lesion: acinar-cell adenoma, dosed 118 weeks, study length 128 weeks) was 29.2 mg/kg/day, the TD50 (rat, strain Fischer 344, males, in drinking water, site: pancreas, exocrine, lesion: adenocarcinoma, acinar or ductal, dosed 118 weeks, study length 128 weeks) was 6.93 mg/kg/day and the TD50 (rat, strain Fischer 344, males, in drinking water, site: pancreas, exocrine, lesion: malignant tumor, dosed 111 weeks, study length 111 weeks) was 0.975 mg/kg/day. For the same compound, the TD50 (rat, strain Fischer 344, males, in drinking water, site: pancreas, exocrine, lesion: several types, types named in the paper, dosed 118 weeks, study length 128 weeks) was 0.49 mg/kg/day.

In the case of `CC1SC(C)N(N=O)C(C)S1` (stereo not given), the TD50 (rat, strain Fischer 344, females, by gavage, site: esophagus, lesion: squamous-cell carcinoma, dosed 43 weeks, study length 90 weeks) was 1.63 mg/kg/day, the TD50 (rat, strain Fischer 344, females, by gavage, site: esophagus, lesion: squamous-cell tumor, dosed 43 weeks, study length 90 weeks) was 0.483 mg/kg/day and the TD50 (rat, strain Fischer 344, females, by gavage, site: liver, lesion: cholangioma, dosed 43 weeks, study length 90 weeks) was 3.58 mg/kg/day. It also gave a TD50 (rat, strain Fischer 344, females, by gavage, site: liver, lesion: hepatocellular adenoma, dosed 43 weeks, study length 90 weeks) of 2.61 mg/kg/day and a TD50 (rat, strain Fischer 344, females, by gavage, site: tongue, lesion: squamous-cell tumor, dosed 43 weeks, study length 90 weeks) of 1.53 mg/kg/day.

`O=[N+]([O-])c1ccc(-c2nc(NCCO)c3ccccc3n2)s1` showed a TD50 (rat, strain Sprague-Dawley, females, in feed, site: any site (literature study), lesion: several types, types named in the paper, dosed 46 weeks, study length 66 weeks) of 1.87 mg/kg/day, a TD50 (rat, strain Sprague-Dawley, females, in feed, site: intestine, lesion: leiomyosarcoma, dosed 46 weeks, study length 66 weeks) of 3.84 mg/kg/day and a TD50 (rat, strain Sprague-Dawley, females, in feed, site: liver, lesion: bile duct adenoma, dosed 46 weeks, study length 66 weeks) of 132 mg/kg/day.

`CN(CCCO)N=O` was tested, and the TD50 (rat, strain Fischer 344, females, by gavage, site: liver, lesion: neoplastic nodule, dosed 130 weeks, study length 130 weeks) was 3.48 mg/kg/day, the TD50 (rat, strain Fischer 344, females, by gavage, site: lung, lesion: alveolar/bronchiolar adenoma, dosed 130 weeks, study length 130 weeks) was 14.4 mg/kg/day and the TD50 (rat, strain Fischer 344, females, by gavage, site: lung, lesion: alveolar/bronchiolar carcinoma, dosed 130 weeks, study length 130 weeks) was 24.9 mg/kg/day. For the same compound, the TD50 (rat, strain Fischer 344, females, by gavage, site: lung, lesion: several types, types named in the paper, dosed 130 weeks, study length 130 weeks) was 8.06 mg/kg/day, the TD50 (rat, strain Fischer 344, males, by gavage, site: liver, lesion: neoplastic nodule, dosed 130 weeks, study length 130 weeks) was 4.78 mg/kg/day and the TD50 (rat, strain Fischer 344, males, by gavage, site: lung, lesion: alveolar/bronchiolar adenoma, dosed 130 weeks, study length 130 weeks) was 8.46 mg/kg/day. It also gave a TD50 (rat, strain Fischer 344, males, by gavage, site: lung, lesion: alveolar/bronchiolar carcinoma, dosed 130 weeks, study length 130 weeks) of 2.46 mg/kg/day, a TD50 (rat, strain Fischer 344, males, by gavage, site: lung, lesion: several types, types named in the paper, dosed 130 weeks, study length 130 weeks) of 1.09 mg/kg/day and a TD50 (rat, strain Fischer 344, males, by gavage, site: testis, lesion: interstitial-cell tumor, dosed 130 weeks, study length 130 weeks) of 2.26 mg/kg/day.

`ClCc1cccnc1` gave a TD50 (mouse, strain B6C3F1, females, by gavage, site: any site (literature study), lesion: several types, types named in the paper, dosed 91 weeks, study length 104 weeks) of 141 mg/kg/day, a TD50 (mouse, strain B6C3F1, females, by gavage, site: liver, lesion: hepatocellular adenoma + hepatocellular carcinoma + neoplastic nodule, dosed 91 weeks, study length 104 weeks) of 16300 mg/kg/day and a TD50 (mouse, strain B6C3F1, females, by gavage, site: lung, lesion: alveolar/bronchiolar adenoma + alveolar/bronchiolar carcinoma, dosed 91 weeks, study length 104 weeks) of 1970 mg/kg/day. It also gave a TD50 (mouse, strain B6C3F1, females, by gavage, site: stomach, lesion: squamous-cell carcinoma + squamous-cell papilloma, dosed 91 weeks, study length 104 weeks) of 394 mg/kg/day, a TD50 (mouse, strain B6C3F1, males, by gavage, site: any site (literature study), lesion: several types, types named in the paper, dosed 91 weeks, study length 104 weeks) of 64.9 mg/kg/day and a TD50 (mouse, strain B6C3F1, males, by gavage, site: liver, lesion: hepatocellular adenoma + hepatocellular carcinoma + neoplastic nodule, dosed 91 weeks, study length 104 weeks) of 324 mg/kg/day. For the same compound, the TD50 (mouse, strain B6C3F1, males, by gavage, site: lung, lesion: alveolar/bronchiolar adenoma + alveolar/bronchiolar carcinoma, dosed 91 weeks, study length 104 weeks) was 624 mg/kg/day, the TD50 (mouse, strain B6C3F1, males, by gavage, site: stomach, lesion: squamous-cell carcinoma + squamous-cell papilloma, dosed 91 weeks, study length 104 weeks) was 161 mg/kg/day and the TD50 (rat, strain Fischer 344, females, by gavage, site: any site (literature study), lesion: several types, types named in the paper, dosed 93 weeks, study length 104 weeks) was 160 mg/kg/day (inactive). It also gave a TD50 (rat, strain Fischer 344, males, by gavage, site: stomach, lesion: squamous-cell carcinoma + squamous-cell papilloma, dosed 93 weeks, study length 104 weeks) of 433 mg/kg/day.

`O=S1OCCO1` gave a TD50 (mouse, strain Ha/ICR, females, i.p., site: lung, lesion: papillary tumor, dosed 64 weeks, study length 64 weeks) of 1.03 mg/kg/day.

In the case of `CC(=O)NNc1ccc(CO)cc1`, the TD50 (mouse, strain Swiss albino, females, in drinking water, site: blood vessels, lesion: several types, types named in the paper, dosed 115 weeks, study length 115 weeks) was 287 mg/kg/day, the TD50 (mouse, strain Swiss albino, females, in drinking water, site: lung, lesion: several types, types named in the paper, dosed 115 weeks, study length 115 weeks) was 329 mg/kg/day and the TD50 (mouse, strain Swiss albino, males, in drinking water, site: blood vessels, lesion: several types, types named in the paper, dosed 115 weeks, study length 115 weeks) was 252 mg/kg/day. For the same compound, the carcinogen call (mouse, strain Swiss albino, males, in drinking water, site: liver, lesion: hepatoma, dosed 115 weeks, study length 115 weeks) was “negative (inactive)” and the TD50 (mouse, strain Swiss albino, males, in drinking water, site: lung, lesion: several types, types named in the paper, dosed 115 weeks, study length 115 weeks) was 208 mg/kg/day.

For `O=[As](O)(O)O`, the TD50 (monkey, strain Cynomolgus [Macaca fascicularis], both sexes, in feed, site: any site (literature study), lesion: benign tumor, dosed 735 weeks, study length 735 weeks) was 0.169 mg/kg/day, the TD50 (monkey, strain Cynomolgus [Macaca fascicularis], both sexes, in feed, site: kidney cortex, lesion: adenoma, dosed 735 weeks, study length 735 weeks) was 0.029 mg/kg/day and the carcinogen call (rat, strain Osborne-Mendel, both sexes, in feed, site: any site (literature study), lesion: malignant tumor, dosed 104 weeks, study length 104 weeks) was “negative (inactive)”. The carcinogen call (rat, strain Osborne-Mendel, both sexes, in feed, site: any site (literature study), lesion: several types, types named in the paper, dosed 104 weeks, study length 104 weeks) was “negative (inactive)”.

For `[O]=[Cr][O][Cr]=[O]`, the carcinogen call (rat, strain BD, both sexes, in feed, site: hypophysis, lesion: adenoma, dosed 85 weeks, study length 187 weeks) was “negative (inactive)”, the carcinogen call (rat, strain BD, both sexes, in feed, site: mammary gland, lesion: carcinoma, dosed 85 weeks, study length 187 weeks) was “negative (inactive)” and the TD50 (rat, strain BD, both sexes, in feed, site: mammary gland, lesion: fibroadenoma, dosed 85 weeks, study length 187 weeks) was 237000 mg/kg/day (inactive).

With `CC1CN1P(=O)(N1CC1C)N1CC1C` (stereo not given) the TD50 (rat, strain Sherman, males, by gavage, site: all sites, lesion: lymphatic leukemia, dosed 60 weeks, study length 60 weeks) was 4.46 mg/kg/day.

In the case of `Nc1ccc(/C=C/c2ccc(N)c(S(=O)(=O)O)c2)c(S(=O)(=O)O)c1`, the carcinogen call (mouse, strain B6C3F1, females, in feed, site: any site (literature study), lesion: several types, types named in the paper, dosed 103 weeks, study length 104 weeks) was “negative (inactive)”, the TD50 (mouse, strain B6C3F1, males, in feed, site: any site (literature study), lesion: several types, types named in the paper, dosed 103 weeks, study length 104 weeks) was 12900 mg/kg/day and the TD50 (mouse, strain B6C3F1, males, in feed, site: liver, lesion: hepatocellular adenoma + hepatocellular carcinoma + neoplastic nodule, dosed 103 weeks, study length 104 weeks) was 9720 mg/kg/day. The TD50 (mouse, strain B6C3F1, males, in feed, site: liver, lesion: hepatocellular adenoma, dosed 103 weeks, study length 104 weeks) was 2570 mg/kg/day (inactive), the TD50 (rat, strain Fischer 344, females, in feed, site: any site (literature study), lesion: several types, types named in the paper, dosed 103 weeks, study length 104 weeks) was 17600 mg/kg/day (inactive) and the TD50 (rat, strain Fischer 344, males, in feed, site: any site (literature study), lesion: several types, types named in the paper, dosed 103 weeks, study length 104 weeks) was 5810 mg/kg/day (inactive). It also gave a TD50 (rat, strain Fischer 344, males, in feed, site: liver, lesion: hepatocellular adenoma + hepatocellular carcinoma + neoplastic nodule, dosed 103 weeks, study length 104 weeks) of 5020 mg/kg/day.
